The text below walks through data of patent publication US8633231B2, “Substituted imidazolones, compositions containing such compounds and methods of use” (Merck Sharp & Dohme Corp., priority 2010, dated 2014).

For orientation: IC50 means the point on the concentration scale where inhibition reaches its midpoint.

Sequence of Recombinant human glucagon receptor-expressing CHO cells (P47871 26-477): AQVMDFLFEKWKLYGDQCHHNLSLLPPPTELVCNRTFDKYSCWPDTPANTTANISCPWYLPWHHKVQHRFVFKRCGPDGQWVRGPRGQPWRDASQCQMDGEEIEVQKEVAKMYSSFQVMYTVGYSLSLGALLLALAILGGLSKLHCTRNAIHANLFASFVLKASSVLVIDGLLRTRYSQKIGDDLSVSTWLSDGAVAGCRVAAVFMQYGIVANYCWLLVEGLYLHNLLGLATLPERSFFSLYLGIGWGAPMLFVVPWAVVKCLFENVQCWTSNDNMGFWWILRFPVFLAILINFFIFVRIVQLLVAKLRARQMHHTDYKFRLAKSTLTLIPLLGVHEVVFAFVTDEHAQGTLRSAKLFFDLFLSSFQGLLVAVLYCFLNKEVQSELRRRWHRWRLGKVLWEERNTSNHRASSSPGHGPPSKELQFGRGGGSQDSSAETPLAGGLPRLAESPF

For this test, the target named is Recombinant human glucagon receptor-expressing CHO cells (Homo sapiens (Human), UniProt P47871). Description: Inhibition of Glucagon-Stimulated Intracellular cAMP Assay. It is filed as cell-based. The following applies: stimulation with 300 pM glucagon; LANCE cAMP Kit. How it is done:
Inhibition of Glucagon-Stimulated Intracellular cAMP Assay
Recombinant human glucagon receptor-expressing CHO cells were harvested using a non-enzymatic cell dissociation solution (GIBCO 2672), pelleted and resuspended in stimulation buffer (1×HBSS, 5 mM Hepes, 0.1% BSA, pH7.4 in the presence of proteinase inhibitor and phosphodiesterase inhibitors). The adenylate cyclase assay was constructed following the LANCE cAMP Kit (Perkin Elmer, AD0264) instructions. Briefly, cells were preincubated with anti-cAMP antibody and 12 points series diluted compound in stimulation buffer with a final concentration of 3% DMSO for 30 minutes prior to stimulation with 300 pM glucagon for 45 minutes. The reaction was stopped by incubating with the supplied detection buffer containing Europium chelate of the Eu-SA/Biotin-cAMP tracer for 20 hours. The assay was done as triplicates in a 384 well plate. Fluorescence at 665 nm was measured using PheraStar instruments. Basal activity (100% inhibition) was determined using the DMSO control and 0% inhibition was defined as cAMP stimulation produced by 300 pM glucagon. Standard cAMP concentrations were assayed concurrently for conversion of fluorescence signal to cAMP level. Data was analyzed using the software program Prism from GraphPad. IC50 values were calculated using non-linear regression analysis assuming single site competition.
For the compound `CC(C)(C)CC[C@H](c1ccc(C(=O)NCCC(=O)O)cc1)N1C(=O)C(c2cc(Cl)cc(Cl)c2)=NC1(C)C` [Example 1], the IC50 worked out at 0.8 µM.
For the compound `CC(C)(C)CC[C@H](c1ccc(C(=O)NCc2nn[nH]n2)cc1)N1C(=O)C(c2cc(Cl)cc(Cl)c2)=NC1(C)C` [Example 2], the IC50 was determined as 3.7 µM.
The same measure for `CC(C)(C)CC[C@H](c1ccc(C(=O)Nc2nn[nH]n2)cc1)N1C(=O)C(c2cc(Cl)cc(Cl)c2)=NC1(C)C` [Example 3]: 6.2 µM.
For the compound `CC(C)CC1(C)N=C(c2cc(Cl)cc(Cl)c2)C(=O)N1[C@H](CCC(C)(C)C)c1ccc(C(=O)NCc2nn[nH]n2)cc1` (some centres unmarked) [Example 4], the IC50 turned out to be 1.1 µM.
The same measure for `CC(C)CC1(C)N=C(c2cc(Cl)cc(Cl)c2)C(=O)N1[C@H](CCC(C)(C)C)c1ccc(C(=O)Nc2nn[nH]n2)cc1` (some centres unmarked) [Example 5]: 5.1 µM; for `CC(C)CC1(C)N=C(c2cccc(F)c2)C(=O)N1[C@H](CCC(C)(C)C)c1ccc(C(=O)NCc2nn[nH]n2)cc1` (some centres unmarked) [Example 6]: 3.4 µM.
In the case of `CC(C)CC1(C)N=C(c2cc(Cl)cc(Cl)c2)C(=O)N1[C@H](CCC(C)(C)C)c1ccc(C(=O)NCCC(=O)O)cc1` (some centres unmarked) [Example 7], the IC50 was 0.6 µM.
As to `CC(C)(C)CC[C@H](c1ccc(C(=O)NCCC(=O)O)cc1)N1C(=O)C(c2cccc(F)c2)=NC1(C)C` [Example 8], the IC50 came to 4.9 µM.
As for `CC(C)(C)CC[C@H](c1ccc(C(=O)Nc2nn[nH]n2)cc1)N1C(=O)C(c2cccc(F)c2)=NC1(C)C` [Example 9], the IC50 stood at 5.9 µM.
The same measure for `CC(C)(C)CC[C@H](c1ccc(C(=O)NCc2nn[nH]n2)cc1)N1C(=O)C(c2cccc(F)c2)=NC1(C)C` [Example 10]: 8.4 µM.
Consider `CC1(C2CCCCC2)N=C(c2cc(Cl)cc(Cl)c2)C(=O)N1CCc1ccc(C(=O)NCCC(=O)O)cc1` (centres unmarked) [Example 11], for which the IC50 was 1.7 µM.
The same measure for `CC1(C)N=C(c2cc(Cl)cc(Cl)c2)C(=O)N1CCc1ccc(C(=O)NCCC(=O)O)cc1` [Example 12]: 1.7 µM.
The same measure for `CC(C)CC1(C)N=C(c2cc(Cl)cc(Cl)c2)C(=O)N1CCc1ccc(C(=O)NCCC(=O)O)cc1` (centres unmarked) [Example 13]: 4.2 µM; for `CC1(C2CCCCC2)N=C(c2ccc(OC(F)(F)F)cc2)C(=O)N1CCc1ccc(C(=O)NCCC(=O)O)cc1` (centres unmarked) [Example 14]: 5.1 µM.
The same measure for `CC1(C2CCCCC2)NC(c2cccc(C(F)(F)F)c2)C(=O)N1CCc1ccc(C(=O)NCCC(=O)O)cc1` (centres unmarked) [Example 15]: 3.5 µM.
Take `CC1(C)N=C(c2ccc(OC(F)(F)F)cc2)C(=O)N1CCc1ccc(C(=O)NCCC(=O)O)cc1` [Example 16]: the 50% inhibitory concentration (IC50) stood at 8.3 µM.
`CC1(C)N=C(c2cc(Cl)cc(Cl)c2)C(=O)N1[C@@H](c1ccc(C(=O)NCCC(=O)O)cc1)C1CC1` [Example 17]: the IC50 was found to be 1.7 µM.
The same measure for `CCCC[C@H](c1ccc(C(=O)NCCC(=O)O)cc1)N1C(=O)C(c2ccc(-c3cc(Cl)cc(Cl)c3)cc2)=NC1(C)C` [Example 18]: 1 µM; for `CC(C)[C@H](c1ccc(C(=O)NCCC(=O)O)cc1)N1C(=O)C(c2cc(Cl)cc(Cl)c2)=NC1(C)C` [Example 19]: 1.3 µM; for `CCCC[C@H](c1ccc(C(=O)NCCC(=O)O)cc1)N1C(=O)C(c2cc(Cl)cc(Cl)c2)=NC1(C)C` [Example 20]: 2 µM.
